The numbers were not newly measured in patent publication US8821921B2, “Vitamin D3 for the transdermal treatment of pain and inflammation” (Anzamed International Limited, priority 2009, dated 2014), which cites them from elsewhere.

Structures are written as SMILES.

The test system of this series is diabetic neuropathic pain. The following applies: daily oral doses, patients with diabetic neuropathy.

In the case of `C=C1CC[C@H](O)C/C1=C/C=C1\CCC[C@]2(C)[C@@H]([C@H](C)CCCC(C)C)CC[C@@H]12` [vitamin D3, cholecalciferol], the diabetic neuropathic pain entry is “significant reduction”.
